# Experiments:
# BT/Lap^R1.0 = assay: CDI of example compounds and Lapatinib (ATPlite cell survival); assay type: cell-based; conditions: compound 5 μM + Lapatinib 1 μM, 72 h; secondary Lapatinib-resistant human breast cancer cells; CDI<1 synergistic
# Experimental: (§1) Cells: (BT474 and SK-BR3 are Lapatinib-sensitive human breast cancer cell strains; BT/LapR and SK/LapR are secondary Lapatinib-resistant human breast cancer cell strains upon Lapatinib stimulation; MDA-MB-361 and MDA-MB-453 are natural Lapatinib-resistant human breast cancer cell strains. BT474, MDA-MB-361, SK-BR3 and MDA-MB-453 are from American Type Culture Collection (ATCC))
# (§2) In a 100 mm culture dish full of adherent cells, digestion with 1 ml 0.25% pancreatin (GIBCO) was carried out at 37° C. for 5 min, and the reaction was stopped with 2 ml medium (containing 10% FBS, GIBCO). The cells were dispersed and collected. After cell count, the cells were diluted to a concentration of 1×10^5 cells/ml, and were seeded to a 96-well plate at 50 μl/well, 5000 cell/well, 60 wells in total, PBS instead of cells was added to the wells of the outmost circle, and the incubation was carried out at 37° C. for 24 h for adherence.
# (§3) For the sample group, samples to be tested were diluted with DMSO to a final concentration of 5 μM; to control wells, the medium containing the same concentration of solvent corresponding to the compound was added, the concentrations of the compounds were identical in each well, 5 wells in parallel were set for each concentration, 25 μL/well, and 25 μL medium was added to each well (for the combination group, 25 μL Lapatinib was added to reach a final concentration of 1 μM). The incubation was carried out at 37° C. for 72 h.
# (§4) To each well, 50 μL ATPlite kit substrate solution was added. The plate was under shaking for 3 min, and was then placed in dark for 10 min. The lysis supernatant was drawn at 100 μL/well, and placed in a luminescent plate. The incubated luminescent plate was placed in an iluminescence apparatus, and the iluminescent value was read.
# (§5) Data Processing Cell survival rate (%)=Experimental group RLU/control group RLU×100%
# (§6) Coefficient of drug interaction (CDI) is used to evaluate the interaction of two drugs, CDI is calculated in accordance with the following formula: CDI=AB/(A×B)×100%. The calculation is performed according to the number of live cells (luminescent value), if CDI<1, the two drugs have a synergistic effect; if CDI<0.7, the synergistic effect is very significant; if CDI=1, the effect of the two drugs in combination is the sum of the effects of the two drugs; if CDI>1, the two drugs have an antagonistic effect.
# SK/Lap^R1.0 = assay: as above; assay type: cell-based; conditions: compound 5 μM + Lapatinib 1 μM, 72 h; secondary Lapatinib-resistant human breast cancer cells; CDI<1 synergistic
# Experimental: as §1, §2, §3, §4, §5, §6
# Hsp70 ATPase = target: T1, Hsp70 ATPase (Homo sapiens, UniProt P0DMV8); assay: Inhibition of Hsp70 ATPase activity (malachite green); assay type: biochemical; conditions: 200 μM; repeated screening carried out twice; Hsp70/Hsp40, 1 mM ATP; read-out: Inhibitory rate (%) on activity of Hsp70 ATPase
# T1 construct: made in house; host or cells: E. coli
# Experimental: (1) Protein: Humanized Hsp70, Hsp40, expressed by E. coli.
# (2) Sample to be tested: 26 compound solids with different colors and states. Positive drugs AZ (CAS:1054543-47-3) and VER 155008 (CAS: 1134156-31-2) were synthesized in the laboratory.
# (4) ATPase Assay buffer: • 0.017% Triton X-100; • 100 mM Tris-HCl; • 20 mM KCl; • 6 mM MgCl2, pH 7.4.
# 1) 13.08 μl DnaK (0.15 mg/mL, 2.14 μM), 1.96 μl DnaJ (1 mg/mL, 25 μM) were dissolved in 7.96 μl Assay Buffer (0.017% Triton X-100, 100 mM Tris-HCl, 20 mM KCl, and 6 mM MgCl2, pH 7.4), and the resultant solution was added to each well of the 96 well plate;
# 2) to each well of the 96 well plate, 1 μL sample to be tested (5 mM) or DMSO (solvent) was added, and vortexed with a Vortex agitator for 10 min; and then standing at 37° C. for 30 min;
# 3) to each well, 1 μL 25 mM ATP was added, to trigger the enzymatic reaction; (in each well, the final reaction volume was 25 μL, the final concentration of DnaK was 1.12 μM, the final concentration of DnaJ was 1.96 μM, the final concentration of DMSO was 4%, the final concentration of Triton X-100 was 0.01%, the final concentration of ATP was 1 mM, and the final concentration of sample to be tested was 200 μM), the enzymatic reaction was carried out at 37° C. for 3 h;
# 4) 80 μL Malachite green staining solution was then added to each well, and was vortexed gently;
# 5) 10 μL of 34% citrate sodium was then added immediately, and vortexed gently, to stop the ATP hydrolysis not caused by ATPase;
# 6) the resultant mixture was mixed thoroughly at 37° C. for 15 min, and OD620 was measured.
# The inhibitory rate of Hsp70 ATPase activity is calculated in accordance with the following formula: Inhibitory rate (%)=(DMSO well OD−Experimental well OD)/(DMSO well OD−Blank well OD)×100
# Criteria for preliminary screening: during preliminary screening, an example compound is regarded as effective in inhibition as long as its inhibitory rate is above 20% for Hsp70 ATPase at 200 μM.
# MDA-MB-453 = assay: CDI of example compounds and Lapatinib (ATPlite cell survival); assay type: cell-based; design: key: CDI = AB/(A×B); <1 synergistic; conditions: compound 5 μM + Lapatinib 1 μM, 72 h; natural Lapatinib-resistant human breast cancer cells; CDI<1 synergistic
# Experimental: as §1, §2, §3, §4, §5, §6
# BT474 = assay: as above; assay type: cell-based; design: key: CDI = AB/(A×B); <1 synergistic; conditions: compound 5 μM + Lapatinib 1 μM, 72 h; Lapatinib-sensitive human breast cancer cells; CDI<1 synergistic, <0.7 very significant, >1 antagonistic
# Experimental: as §1, §2, §3, §4, §5, §6
# MDA-MB-361 = assay: as above; assay type: cell-based; design: key: CDI = AB/(A×B); <1 synergistic; conditions: compound 5 μM + Lapatinib 1 μM, 72 h; natural Lapatinib-resistant human breast cancer cells; CDI<1 synergistic
# Experimental: as §1, §2, §3, §4, §5, §6
# SK-BR3 = assay: as above; assay type: cell-based; design: key: CDI = AB/(A×B); <1 synergistic; conditions: compound 5 μM + Lapatinib 1 μM, 72 h; Lapatinib-sensitive human breast cancer cells; CDI<1 synergistic
# Experimental: as §1, §2, §3, §4, §5, §6
# T1 sequence (P0DMV8 2-641 limits assumed): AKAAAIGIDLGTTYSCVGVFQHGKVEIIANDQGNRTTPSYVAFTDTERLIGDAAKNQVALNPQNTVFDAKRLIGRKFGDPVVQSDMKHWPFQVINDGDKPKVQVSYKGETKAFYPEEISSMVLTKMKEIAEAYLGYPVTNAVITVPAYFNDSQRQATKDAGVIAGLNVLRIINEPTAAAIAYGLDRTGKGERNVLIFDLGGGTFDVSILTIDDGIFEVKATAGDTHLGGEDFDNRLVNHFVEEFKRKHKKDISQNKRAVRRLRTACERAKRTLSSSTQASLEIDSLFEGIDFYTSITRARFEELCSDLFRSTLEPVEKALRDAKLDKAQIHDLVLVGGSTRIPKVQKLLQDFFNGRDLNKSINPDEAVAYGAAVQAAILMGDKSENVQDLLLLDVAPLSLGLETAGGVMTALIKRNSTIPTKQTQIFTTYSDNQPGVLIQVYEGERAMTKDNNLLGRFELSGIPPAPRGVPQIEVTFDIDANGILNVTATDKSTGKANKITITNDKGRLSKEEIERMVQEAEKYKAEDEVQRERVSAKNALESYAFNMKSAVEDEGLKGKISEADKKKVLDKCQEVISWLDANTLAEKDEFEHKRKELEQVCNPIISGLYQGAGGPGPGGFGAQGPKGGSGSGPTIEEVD
Structure (SMILES),"CDI of example compounds and Lapatinib, BT/Lap^R1.0 (BT/Lap^R1.0)","CDI of example compounds and Lapatinib, SK/Lap^R1.0 (SK/Lap^R1.0)",inhibition at 200 µM (Hsp70 ATPase) [%],"CDI of example compounds and Lapatinib, MDA-MB-453 (MDA-MB-453)","CDI of example compounds and Lapatinib, BT474 (BT474)","CDI of example compounds and Lapatinib, MDA-MB-361 (MDA-MB-361)","CDI of example compounds and Lapatinib, SK-BR3 (SK-BR3)"
"CC(C)(C)C(NC(=O)/C=C/c1ccccc1)NC(=S)Nc1ccccc1 (stereo not drawn) [Example 40, (2E)-N-[2,2-dimethyl-1-(3-phenylthioureido)propyl] cinnamamide]",0.95,0.99,27.3,1.37,0.85,0.95,1.14
O=C(/C=C/c1ccccc1)NC(NC(=S)Nc1ccccc1)C1CC1 (stereo not drawn) [Example 41],0.99,1.02,22.5,1.07,0.91,0.91,1.09
"CC(C)C(NC(=O)/C=C/c1ccccc1)NC(=S)Nc1ccccc1 (stereo not drawn) [Example 42, (2E)-N-[2-methyl-1-(3-phenylthioureido)propyl] cinnamamide]",0.99,0.99,-4.2,1.15,0.92,0.96,1.14
"CNC(=S)NC(CC(C)C)NC(=O)/C=C/c1cc(OC)c(OC)c(OC)c1 (stereo not drawn) [Example 43, (2E)-N-[3-methyl-1-(3-methylthioureido)butyl]-3-(3,4,5-trimethoxyphenyl) acrylamide]",1,0.93,7.62,1.28,1.03,0.95,1
"COc1cc(/C=C/C(=O)NC(NC(=S)Nc2ccccc2C)C(C)(C)C)cc(OC)c1OC (stereo not drawn) [Example 44, (2E)-N-[2,2-dimethyl-1-(3-o-methylphenylthioureido)propyl]-3-(3,4,5-trimethoxyphenyl)acrylamide]",0.93,0.98,50.5,1.12,0.94,0.93,0.96
"COc1cc(/C=C/C(=O)NC(NC(=S)Nc2ccccc2C)C2CC2)cc(OC)c1OC (stereo not drawn) [Example 45, (2E)-N-[cyclopropyl-(3-o-methylphenylthioureido)-methyl]-3-(3,4,5-trimethoxyphenyl) acrylamide]",0.79,1.04,19.3,0.98,1.59,0.93,1.05
